Results on 15 compounds are retold here after US20250345277A1, “Ionizable Liposome, Preparation Thereof, and Application Thereof in Gene Delivery” (MAXIRNA (ZHEJIANG) TECHNOLOGY CO. LTD., priority 2021, published 2025).

Each structure is given as a SMILES string.

Series [1] can be described thus: Size and polydispersity index PDI of lipid nanoparticles (Malvern Zetasizer Nano ZS). The class given is physicochemical. Conditions: LNP ionizable lipid/DOPE/cholesterol/DSPE-PEG2000 35/16/46.5/2.5 mol% encapsulating EGFP mRNA; for Particle Size: in nm (unit assumed). Summed up: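 LNPs of ionizable lipid/DOPE/cholesterol/DSPE-PEG2000 (35/16/46.5/2.5 mol %) encapsulating EGFP mRNA, made by microfluidic mixing (ethanol lipid:citrate pH 6.1 aqueous 1:3 by volume; lipid:mRNA ~10:1 w/w). Buffer-exchanged into DPBS, 0.2 μm filtered. Size and PDI by dynamic light scattering at […] backscatter angle.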

A short description of series [2]: Entrapment efficiency of LNP preparation encapsulating EGFP mRNA. The class given is physicochemical. The settings on record: LNP ionizable lipid/DOPE/cholesterol/DSPE-PEG2000 35/16/46.5/2.5 mol% encapsulating EGFP mRNA. Summed up: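 LNPs of ionizable lipid/DOPE/cholesterol/DSPE-PEG2000 (35/16/46.5/2.5 mol %) made by microfluidic mixing of ethanol lipids with EGFP mRNA in 20 mM citrate pH 6.1 (1:3 by volume), lipid:mRNA about 10:1 by weight. Buffer exchanged to DPBS by ultrafiltration, then 0.2 μm filtered; mRNA 0.002–0.5 mg/mL.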

The test system of another series is DC2.4 cells. Kind of series: In vitro transfection of DC2.4 cells with EGFP mRNA LNP preparation (flow cytometry). The class given is cell-based, mouse. Conditions: for Cell Viability / Positive Rate (EGFP) / Fluorescence Intensity: DC2.4 cells; for Cell Viability / Positive Rate (EGFP): EGFP mRNA LNP, 200 ng mRNA per well, flow cytometry; for Fluorescence Intensity: EGFP mRNA expression level, normalized based on the sample with the highest fluorescence intensity. The method, boiled down: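 DC2.4 is a mouse bone marrow-derived dendritic cell line, grown adherent at 37 °C, 5% CO2 and passaged with trypsin at 80-90% confluence. The EGFP mRNA LNP preparation was diluted in serum-free Opti-MEM to 1 μg/ml mRNA for transfection.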
A general note: In flow cytometry, cells or beads pass a laser one at a time.

Take `CCCCCCCCCCC(O)CN(CCN1CCN(CCN(CCN(CC(O)CCCCCCCCCC)CC(O)CCCCCCCCCC)CCN(CC(O)CCCCCCCCCC)CC(O)CCCCCCCCCC)CC1)CC(O)CCCCCCCCCC` (centres unmarked) [A-C12]: in series [1], the PDI came to 0.173 and the “Particle Size” value was 91.6. In addition, in series [2], the “Entrapment Efficiency” value is recorded as 89.80%. Moreover, in the series on DC2.4 cells, the “Cell Viability” value is reported as 87.1%, the “Positive Rate (EGFP)” value was 73.3% and the “Fluorescence Intensity” value is 0.84.
For `CCCCCCCCCCCCC(O)CN(CCN1CCN(CCN(CCN(CC(O)CCCCCCCCCCCC)CC(O)CCCCCCCCCCCC)CCN(CC(O)CCCCCCCCCCCC)CC(O)CCCCCCCCCCCC)CC1)CC(O)CCCCCCCCCCCC` (centres unmarked) [A-C14], in series [1], the PDI was 0.107 and the “Particle Size” value is 97.1. The “Entrapment Efficiency” value in series [2] was determined as 80.31%. Besides, in the series with DC2.4 cells, the “Cell Viability” value worked out at 95.4%, the “Positive Rate (EGFP)” value stood at 92.3% and the “Fluorescence Intensity” value worked out at 0.30.
As to `CCCCCCCCCCCCCCC(O)CN(CCN1CCN(CCN(CCN(CC(O)CCCCCCCCCCCCCC)CC(O)CCCCCCCCCCCCCC)CCN(CC(O)CCCCCCCCCCCCCC)CC(O)CCCCCCCCCCCCCC)CC1)CC(O)CCCCCCCCCCCCCC` (centres unmarked) [A-C16], in series [1], the PDI is on record as 0.183 and the “Particle Size” value is 90.8. For the same compound, the “Entrapment Efficiency” value in series [2] stood at 90.30%. In the series with DC2.4 cells, the “Cell Viability” value is 90.0%, the “Positive Rate (EGFP)” value is reported as 66.3% and the “Fluorescence Intensity” value came out at 0.80.
`CCCCCCCCCCCCCCCCC(O)CN(CCN1CCN(CCN(CCN(CC(O)CCCCCCCCCCCCCCCC)CC(O)CCCCCCCCCCCCCCCC)CCN(CC(O)CCCCCCCCCCCCCCCC)CC(O)CCCCCCCCCCCCCCCC)CC1)CC(O)CCCCCCCCCCCCCCCC` (centres unmarked) [A-C18]: in series [1], the PDI is listed as 0.144 and the “Particle Size” value came out at 96.9. The “Entrapment Efficiency” value in series [2] is recorded as 90.56%. In addition, in the series on DC2.4 cells, the “Cell Viability” value turned out to be 93.0%, the “Positive Rate (EGFP)” value worked out at 61.9% and the “Fluorescence Intensity” value was 0.87.
With `CCCCCCCCCCC(O)CN(CCOCCN(CCOCCN(CC(O)CCCCCCCCCC)CC(O)CCCCCCCCCC)CCN1CCN(CCOCCN(CC(O)CCCCCCCCCC)CC(O)CCCCCCCCCC)CC1)CC(O)CCCCCCCCCC` (centres unmarked) [B-C12, 19-(2-(4-(2-(2-(di(2-hydroxydodecyl)amino)ethoxy)ethyl)piperazin-1-yl)ethyl)-13, 15-bis(2-hydroxydodecyl)-16,22-dioxa-13,19,25-triazaheptakadecane-11,27-diol], in series [1], the PDI came out at 0.147 and the “Particle Size” value was 102.9. Also, the “Entrapment Efficiency” value in series [2] stood at 89.93%. For the same compound, in the series with DC2.4 cells, the “Cell Viability” value is listed as 85.0%, the “Positive Rate (EGFP)” value came out at 83.0% and the “Fluorescence Intensity” value was found to be 0.20.
As to `CCCCCCCCCCCCC(O)CN(CCOCCN(CCOCCN(CC(O)CCCCCCCCCCCC)CC(O)CCCCCCCCCCCC)CCN1CCN(CCOCCN(CC(O)CCCCCCCCCCCC)CC(O)CCCCCCCCCCCC)CC1)CC(O)CCCCCCCCCCCC` (centres unmarked) [B-C14], in series [1], the PDI is on record as 0.133 and the “Particle Size” value turned out to be 90.5. In addition, the “Entrapment Efficiency” value in series [2] turned out to be 95.21%. For the same compound, in the series on DC2.4 cells (DC2.4, after in vitro transfection), the “cell viability by flow cytometry (FIG. 1)” value is “high viability”. Moreover, in the series with DC2.4 cells (DC2.4, in the absence of AopE4), the “transfection efficiency (FIG. 2)” value is listed as “high transfection efficiency”. In the series with DC2.4 cells, the “Cell Viability” value came out at 95.0%, the “Positive Rate (EGFP)” value is on record as 90.2% and the “Fluorescence Intensity” value was found to be 1.00.
Turning to `CCCCCCCCCCC(O)CN(CCOCCOCCN(CCOCCOCCN(CC(O)CCCCCCCCCC)CC(O)CCCCCCCCCC)CCN1CCN(CCOCCOCCN(CC(O)CCCCCCCCCC)CC(O)CCCCCCCCCC)CC1)CC(O)CCCCCCCCCC` (centres unmarked) [C-C12], in series [1], the PDI was 0.070 and the “Particle Size” value is 92.5. The “Entrapment Efficiency” value in series [2] came to 95.24%. Also, in the series with DC2.4 cells, the “Cell Viability” value was 94.0%, the “Positive Rate (EGFP)” value came out at 64.4% and the “Fluorescence Intensity” value is reported as 0.71.
With `CCCCCCCCCCC(O)CN(CCOCCOCCOCCN(CCOCCOCCOCCN(CC(O)CCCCCCCCCC)CC(O)CCCCCCCCCC)CCN1CCN(CCOCCOCCOCCN(CC(O)CCCCCCCCCC)CC(O)CCCCCCCCCC)CC1)CC(O)CCCCCCCCCC` [D-C12], in series [1], the PDI was determined as 0.073 and the “Particle Size” value came to 90.5. In addition, the “Entrapment Efficiency” value in series [2] came to 91.80%. For the same compound, in the series on DC2.4 cells, the “Cell Viability” value was determined as 90.8%, the “Positive Rate (EGFP)” value is recorded as 65.6% and the “Fluorescence Intensity” value worked out at 0.07.
Take `CCCCCCCCCCCCC(O)CN(CCOCCOCCOCCN(CCOCCOCCOCCN(CC(O)CCCCCCCCCCCC)CC(O)CCCCCCCCCCCC)CCN1CCN(CCOCCOCCOCCN(CC(O)CCCCCCCCCCCC)CC(O)CCCCCCCCCCCC)CC1)CC(O)CCCCCCCCCCCC` [D-C14]: in series [1], the PDI was 0.168 and the “Particle Size” value is given as 97.2. The “Entrapment Efficiency” value in series [2] came to 92.36%. Besides, in the series on DC2.4 cells, the “Cell Viability” value was found to be 91.3%, the “Positive Rate (EGFP)” value turned out to be 96.7% and the “Fluorescence Intensity” value came to 0.95.
Regarding `CCCCCCCCCCCCCCC(O)CN(CCOCCOCCOCCN(CCOCCOCCOCCN(CC(O)CCCCCCCCCCCCCC)CC(O)CCCCCCCCCCCCCC)CCN1CCN(CCOCCOCCOCCN(CC(O)CCCCCCCCCCCCCC)CC(O)CCCCCCCCCCCCCC)CC1)CC(O)CCCCCCCCCCCCCC` [D-C16], in series [1], the PDI is listed as 0.117 and the “Particle Size” value is on record as 91.6. Besides, the “Entrapment Efficiency” value in series [2] is 86.56%. For the same compound, in the series on DC2.4 cells, the “Cell Viability” value is listed as 91.1%, the “Positive Rate (EGFP)” value is 71.7% and the “Fluorescence Intensity” value stood at 0.82.
On to `CCCCCCCCCCCCCCCCC(O)CC(CCOCCOCCOCCN(CCOCCOCCOCCN(CC(O)CCCCCCCCCCCCCCCC)CC(O)CCCCCCCCCCCCCCCC)CCN1CCN(CCOCCOCCOCCN(CC(O)CCCCCCCCCCCCCCCC)CC(O)CCCCCCCCCCCCCCCC)CC1)CC(O)CCCCCCCCCCCCCCCC` [D-C18], for which, in series [1], the PDI was 0.105 and the “Particle Size” value is 103.0. Moreover, the “Entrapment Efficiency” value in series [2] is listed as 88.54%. Moreover, in the series with DC2.4 cells, the “Cell Viability” value is 81.5%, the “Positive Rate (EGFP)” value was 64.4% and the “Fluorescence Intensity” value came out at 0.45.
For `CCCCCCCCCCCCC(O)CN(CCN(CCN1CCN(C)CC1)CCN(CC(O)CCCCCCCCCCCC)CC(O)CCCCCCCCCCCC)CC(O)CCCCCCCCCCCC` (centres unmarked) [E-C14], in series [1], the PDI stood at 0.119 and the “Particle Size” value was 85.2. In series [2], the “Entrapment Efficiency” value was 85.62%. Also, in the series with DC2.4 cells, the “Cell Viability” value is >99.0%, the “Positive Rate (EGFP)” value was 84.3% and the “Fluorescence Intensity” value was 0.45.
Turning to `CCCCCCCCCCCCC(O)CN(CCOCCN(CCOCCN(CC(O)CCCCCCCCCCCC)CC(O)CCCCCCCCCCCC)CCN1CCN(C)CC1)CC(O)CCCCCCCCCCCC` (centres unmarked) [F-C14], in series [1], the PDI is listed as 0.131 and the “Particle Size” value worked out at 82.4. In addition, the “Entrapment Efficiency” value in series [2] is listed as 95.21%. For the same compound, in the series with DC2.4 cells, the “Cell Viability” value was determined as 93.2%, the “Positive Rate (EGFP)” value came to 73.5% and the “Fluorescence Intensity” value was 0.33.
Turning to `CCCCCCCCCCCCC(O)CN(CCOCCOCCN(CCOCCOCCN(CC(O)CCCCCCCCCCCC)CC(O)CCCCCCCCCCCC)CCN1CCN(C)CC1)CC(O)CCCCCCCCCCCC` (centres unmarked) [G-C14], in series [1], the PDI turned out to be 0.180 and the “Particle Size” value is 86.4. In series [2], the “Entrapment Efficiency” value is reported as 84.02%. Besides, in the series on DC2.4 cells, the “Cell Viability” value is >99.0%, the “Positive Rate (EGFP)” value is 67.5% and the “Fluorescence Intensity” value is listed as 0.30.
On to `CCCCCCCCCCCCC(O)CN(CCOCCOCCOCCN(CCOCCOCCOCCN(CC(O)CCCCCCCCCCCC)CC(O)CCCCCCCCCCCC)CCN1CCN(C)CC1)CC(O)CCCCCCCCCCCC` (centres unmarked) [H-C14], for which, in series [1], the PDI was determined as 0.099 and the “Particle Size” value is recorded as 94.8. Besides, the “Entrapment Efficiency” value in series [2] worked out at 91.67%. In the series on DC2.4 cells, the “Cell Viability” value came out at 91.7%, the “Positive Rate (EGFP)” value was determined as 66.8% and the “Fluorescence Intensity” value is listed as 0.52.
